From US20120245137A1 (Zalicus Pharmaceuticals Ltd., priority 2009, published 2012)

How the values were obtained:
Assay type in all cases: cell-based
[1] = target: N-type calcium channel subunits (α1B, α2δ, and β3a) (Homo sapiens, UniProt Q00975); assay: Block of Cav2.2 channel, whole cell voltage clamp, manual and PatchXpress; conditions: Table 5; table follows Assay Example 3 (whole cell voltage clamp / PatchXpress); assay not given
Procedure, shortened: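 Percent block taken as current amplitude ratio with versus without compound, applied in rising doses; IC50 fitted where one cell received multiple doses. Protocol: 50 ms pulses to +20 mV at 0.067 Hz from […] or −90 mV holding; P/n leak subtraction, no junction-potential correction; manual and PatchXpress recordings.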

[2] = target: human α1H T-type channels (Homo sapiens, UniProt O95180); assay: T-type calcium channel block, whole cell patch clamp, α1H; conditions: HEK cells stably expressing human α1H; mainly non-inactivated protocol; values above 10,000 nM represented as 10000
Sequence of human α1H T-type channels (O95180 whole entry): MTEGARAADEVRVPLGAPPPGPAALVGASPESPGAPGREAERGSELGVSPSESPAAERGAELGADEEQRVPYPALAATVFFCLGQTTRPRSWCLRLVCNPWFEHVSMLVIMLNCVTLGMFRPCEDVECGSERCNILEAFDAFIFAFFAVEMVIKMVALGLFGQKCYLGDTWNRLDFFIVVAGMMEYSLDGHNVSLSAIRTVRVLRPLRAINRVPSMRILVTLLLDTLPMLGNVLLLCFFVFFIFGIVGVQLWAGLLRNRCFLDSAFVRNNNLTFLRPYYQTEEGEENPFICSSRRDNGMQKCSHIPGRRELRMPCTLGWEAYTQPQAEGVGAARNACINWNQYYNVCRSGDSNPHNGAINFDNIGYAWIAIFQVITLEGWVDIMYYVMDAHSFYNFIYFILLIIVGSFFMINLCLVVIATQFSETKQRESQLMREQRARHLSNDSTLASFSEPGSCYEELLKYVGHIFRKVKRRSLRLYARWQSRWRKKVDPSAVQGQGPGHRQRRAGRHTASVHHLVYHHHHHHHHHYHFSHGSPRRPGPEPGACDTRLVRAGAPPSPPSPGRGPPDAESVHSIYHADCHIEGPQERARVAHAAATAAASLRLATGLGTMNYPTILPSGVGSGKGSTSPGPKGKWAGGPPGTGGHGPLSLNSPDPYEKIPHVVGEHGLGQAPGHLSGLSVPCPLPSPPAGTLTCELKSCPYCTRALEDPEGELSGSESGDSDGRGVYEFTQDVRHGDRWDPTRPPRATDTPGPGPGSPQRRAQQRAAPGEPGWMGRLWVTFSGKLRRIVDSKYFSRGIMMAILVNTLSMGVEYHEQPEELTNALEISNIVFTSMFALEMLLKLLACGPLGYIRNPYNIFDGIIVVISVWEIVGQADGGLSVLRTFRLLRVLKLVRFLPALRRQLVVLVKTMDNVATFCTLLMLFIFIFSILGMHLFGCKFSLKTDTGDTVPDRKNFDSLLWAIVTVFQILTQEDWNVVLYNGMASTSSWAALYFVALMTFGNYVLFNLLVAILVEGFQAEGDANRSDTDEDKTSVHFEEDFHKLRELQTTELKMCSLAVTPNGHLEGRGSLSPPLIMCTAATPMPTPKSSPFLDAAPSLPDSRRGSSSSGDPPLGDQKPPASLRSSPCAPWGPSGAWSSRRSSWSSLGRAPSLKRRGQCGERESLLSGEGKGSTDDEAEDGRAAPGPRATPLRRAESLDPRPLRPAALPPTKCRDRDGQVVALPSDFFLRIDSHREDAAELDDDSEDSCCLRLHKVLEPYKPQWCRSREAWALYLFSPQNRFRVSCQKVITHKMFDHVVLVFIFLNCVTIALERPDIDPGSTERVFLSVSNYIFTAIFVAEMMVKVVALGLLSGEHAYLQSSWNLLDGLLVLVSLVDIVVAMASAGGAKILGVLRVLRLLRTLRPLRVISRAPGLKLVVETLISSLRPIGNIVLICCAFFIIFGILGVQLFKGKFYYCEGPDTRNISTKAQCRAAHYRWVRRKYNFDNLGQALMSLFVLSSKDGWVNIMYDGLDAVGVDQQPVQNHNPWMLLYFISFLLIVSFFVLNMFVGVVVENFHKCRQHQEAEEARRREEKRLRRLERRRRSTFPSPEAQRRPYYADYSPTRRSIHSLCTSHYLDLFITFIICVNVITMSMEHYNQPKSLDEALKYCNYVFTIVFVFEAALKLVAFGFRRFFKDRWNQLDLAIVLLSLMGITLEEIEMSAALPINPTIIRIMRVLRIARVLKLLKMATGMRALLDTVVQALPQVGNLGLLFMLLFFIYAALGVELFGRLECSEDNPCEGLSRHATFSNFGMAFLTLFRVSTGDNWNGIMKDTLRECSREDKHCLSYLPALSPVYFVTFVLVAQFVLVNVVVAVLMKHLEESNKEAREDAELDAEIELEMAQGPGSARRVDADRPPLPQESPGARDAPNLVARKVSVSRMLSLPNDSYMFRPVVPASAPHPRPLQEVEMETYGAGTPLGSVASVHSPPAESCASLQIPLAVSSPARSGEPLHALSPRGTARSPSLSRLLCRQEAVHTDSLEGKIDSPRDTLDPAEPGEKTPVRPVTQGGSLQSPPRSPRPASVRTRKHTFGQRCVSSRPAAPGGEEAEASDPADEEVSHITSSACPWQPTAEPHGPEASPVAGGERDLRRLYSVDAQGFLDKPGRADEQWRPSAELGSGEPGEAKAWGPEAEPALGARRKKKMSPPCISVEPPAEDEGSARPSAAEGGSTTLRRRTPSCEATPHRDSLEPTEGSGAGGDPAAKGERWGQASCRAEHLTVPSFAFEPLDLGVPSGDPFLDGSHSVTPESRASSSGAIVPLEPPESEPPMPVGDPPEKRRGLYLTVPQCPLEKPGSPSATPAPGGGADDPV
Description: (§1) T-type calcium channel blocking activity was assayed in human embryonic kidneycells, HEK 293 (Invitrogen), stably transfected with the T-type calcium channel subunits. Briefly, cells were cultured in Dulbecco's modified eagle medium (DMEM) supplemented with 10% fetal bovine serum, 200 U/ml penicillin, and 0.2 mg/mL streptomycin at 37° C. with 5% CO2. At 85% confluency, cells were split with 0.25% trypsin/1 mM EDTA and plated at 10% confluency on glass coverslips. At 12 hours, the medium was replaced, and the cells stably transfected using a standard calcium phosphate protocol and the appropriate calcium channel cDNA's. Fresh DMEM was supplied, and the cells transferred to 28° C./5% CO2.
(§2) Standard patch-clamp techniques were employed to identify blockers of T-type currents. Briefly, previously described HEK cell lines stably expressing human α1G, α1H, and α1I T-type channels were used for all the recordings (passage #: 4-20, 37° C., 5% CO2). Whole cell patch clamp experiments were performed using an Axopatch 200B amplifier (Axon Instruments, Burlingame, Calif.) linked to a personal computer equipped with pCLAMP software. Data were analyzed using Clampfit (Axon Instruments) and SigmaPlot 4.0 (Jandel Scientific). To obtain T-type currents, plastic dishes containing semi-confluent cells were positioned on the stage of a ZEISS AXIOVERT S100 microscope after replacing the culture medium with external solution (Table 2). Whole-cell patches were obtained using pipettes (borosilicate glass with filament, O.D.: 1.5 mm, I.D.: 0.86 mm, 10 cm length), fabricated on a SUTTER P-97 puller with resistance values of ˜5 MΩ (Table 3).
(§3) T-type currents were reliably obtained by using two voltage protocols: • “non-inactivating,” and • “inactivation.”
(§4) Test compounds were dissolved in external solution, 0.1-0.01% DMSO. After ˜10 minutes rest, they were applied by gravity close to the cell using a WPI microfil tubing. The “non-inactivated” pre-pulse was used to examine the resting block of a compound. The “inactivated” protocol was employed to study voltage-dependent block.

[3] = target: human α1G T-type channels (Homo sapiens, UniProt O43497); assay: T-type calcium channel block, whole cell patch clamp, α1G; conditions: HEK cells stably expressing human α1G; mainly non-inactivated protocol; values above 10,000 nM represented as 10000
Sequence of human α1G T-type channels (O43497 whole entry): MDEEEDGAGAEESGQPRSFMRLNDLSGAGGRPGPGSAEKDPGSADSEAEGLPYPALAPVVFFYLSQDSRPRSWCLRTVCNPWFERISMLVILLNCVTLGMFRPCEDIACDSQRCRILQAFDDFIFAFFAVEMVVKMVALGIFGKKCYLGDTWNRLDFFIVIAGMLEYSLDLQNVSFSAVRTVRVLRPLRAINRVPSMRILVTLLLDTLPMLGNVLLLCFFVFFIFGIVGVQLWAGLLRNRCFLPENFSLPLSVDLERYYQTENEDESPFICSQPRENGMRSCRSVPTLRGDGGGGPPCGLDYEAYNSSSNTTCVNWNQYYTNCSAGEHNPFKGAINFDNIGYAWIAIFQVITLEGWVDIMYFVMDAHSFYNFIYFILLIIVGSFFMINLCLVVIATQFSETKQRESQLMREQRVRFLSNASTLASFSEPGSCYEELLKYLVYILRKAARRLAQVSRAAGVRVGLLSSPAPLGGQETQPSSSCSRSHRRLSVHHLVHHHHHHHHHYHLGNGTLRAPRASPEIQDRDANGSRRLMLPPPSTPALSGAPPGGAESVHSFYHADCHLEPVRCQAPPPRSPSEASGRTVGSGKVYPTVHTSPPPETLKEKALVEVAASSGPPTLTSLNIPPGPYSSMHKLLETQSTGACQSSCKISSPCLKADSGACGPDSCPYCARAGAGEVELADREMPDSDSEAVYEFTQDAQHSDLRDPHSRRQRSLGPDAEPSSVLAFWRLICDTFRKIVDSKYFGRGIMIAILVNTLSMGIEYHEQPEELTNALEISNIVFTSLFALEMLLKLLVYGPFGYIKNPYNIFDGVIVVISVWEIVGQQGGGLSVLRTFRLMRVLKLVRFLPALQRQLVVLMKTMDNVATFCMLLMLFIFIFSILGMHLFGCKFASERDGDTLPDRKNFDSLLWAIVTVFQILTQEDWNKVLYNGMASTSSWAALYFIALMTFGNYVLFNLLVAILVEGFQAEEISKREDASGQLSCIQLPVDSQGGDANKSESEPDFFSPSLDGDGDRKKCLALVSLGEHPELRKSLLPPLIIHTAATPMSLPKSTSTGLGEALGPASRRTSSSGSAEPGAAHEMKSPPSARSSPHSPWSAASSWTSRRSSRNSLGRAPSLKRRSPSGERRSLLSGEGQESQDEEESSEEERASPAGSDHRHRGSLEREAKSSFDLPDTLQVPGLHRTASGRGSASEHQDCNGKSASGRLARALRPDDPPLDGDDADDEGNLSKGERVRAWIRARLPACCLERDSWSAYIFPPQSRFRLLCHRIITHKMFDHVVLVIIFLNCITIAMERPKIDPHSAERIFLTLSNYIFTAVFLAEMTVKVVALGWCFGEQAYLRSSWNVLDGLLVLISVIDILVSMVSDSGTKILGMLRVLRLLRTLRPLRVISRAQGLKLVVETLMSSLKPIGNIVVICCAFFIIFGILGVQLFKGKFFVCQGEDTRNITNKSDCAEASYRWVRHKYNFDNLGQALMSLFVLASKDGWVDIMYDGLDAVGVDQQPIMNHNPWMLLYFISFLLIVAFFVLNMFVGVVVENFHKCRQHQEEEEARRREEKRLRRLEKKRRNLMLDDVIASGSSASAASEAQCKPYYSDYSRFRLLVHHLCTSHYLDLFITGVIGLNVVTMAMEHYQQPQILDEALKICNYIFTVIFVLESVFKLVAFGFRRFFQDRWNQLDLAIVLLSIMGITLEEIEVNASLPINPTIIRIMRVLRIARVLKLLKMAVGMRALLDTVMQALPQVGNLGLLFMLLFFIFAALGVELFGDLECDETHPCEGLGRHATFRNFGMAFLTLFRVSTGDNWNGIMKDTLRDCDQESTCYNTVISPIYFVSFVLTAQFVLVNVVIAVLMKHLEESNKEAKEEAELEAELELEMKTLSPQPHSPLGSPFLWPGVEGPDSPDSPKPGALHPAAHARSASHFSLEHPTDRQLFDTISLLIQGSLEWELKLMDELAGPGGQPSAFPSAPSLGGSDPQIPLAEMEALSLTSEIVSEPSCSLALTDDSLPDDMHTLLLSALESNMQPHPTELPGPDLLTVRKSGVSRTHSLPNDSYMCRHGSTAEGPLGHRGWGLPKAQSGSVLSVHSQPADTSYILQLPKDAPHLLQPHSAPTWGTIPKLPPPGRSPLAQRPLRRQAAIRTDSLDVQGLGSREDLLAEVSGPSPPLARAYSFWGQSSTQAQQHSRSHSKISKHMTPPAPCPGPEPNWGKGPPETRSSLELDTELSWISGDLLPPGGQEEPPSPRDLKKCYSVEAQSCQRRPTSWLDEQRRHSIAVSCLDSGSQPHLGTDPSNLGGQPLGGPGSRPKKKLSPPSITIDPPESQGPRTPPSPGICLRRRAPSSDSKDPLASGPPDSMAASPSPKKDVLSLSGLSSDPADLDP
Description: as §1, §2, §3, §4

Row | IC50 [1] [nM] | IC50 [2] [nM] | IC50 [3] [nM] | Compound
1 | 3330 | > 10000 | – | O=C(Nc1ccc(Oc2ccc(Cl)cc2)cc1)[C@H]1C[C@H](S(=O)(=O)c2cccc(C(F)(F)F)c2)C1 [Compound 404, (1R,3R)-N-(4-(4-chlorophenoxy)phenyl)-3-(3-(trifluoromethyl)phenylsulfonyl)cyclobutane carboxamide]
2 | 370 | > 10000 | – | O=C(NC[C@H]1C[C@H](S(=O)(=O)c2cccc(C(F)(F)F)c2)C1)c1ccnc(C(F)(F)F)n1 [Compound 362, 2-(trifluoromethyl)-N-(((1R,3R)-3-(3-(trifluoromethyl)phenylsulfonyl)cyclobutyl)methyl)pyrimidine-4-carboxamide]
3 | 3760 | > 10000 | – | Cc1nc(S(=O)(=O)N[C@H]2CC[C@@](F)(S(=O)(=O)c3cccc(C(F)(F)F)c3)CC2)cn1C [Compound 294]
4 | – | 550 | – | CC(C)(CCNC(=O)c1ccc(F)c(C(F)(F)F)c1)S(=O)(=O)c1cccc(C(F)(F)F)c1 [Compound 466, 4-fluoro-N-(3-methyl-3-(3-(trifluoromethyl)phenylsulfonyl)butyl)-3-(trifluoromethyl)benzamide]
5 | 130 | – | 1720 | O=C(N[C@H]1CC[C@@](F)(S(=O)(=O)c2cccc(C(F)(F)F)c2)CC1)c1ccnc(C(F)(F)F)c1 [Compound 246]
6 | 60 | – | 4450 | Cc1cc(C(=O)N[C@H]2CC[C@@](F)(S(=O)(=O)c3cccc(C(F)(F)F)c3)CC2)c(C(F)(F)F)o1 [Compound 243]
7 | 40 | – | 3570 | CC(C)(C)S(=O)(=O)c1ccsc1C(=O)N[C@H]1CC[C@@](F)(S(=O)(=O)c2cccc(C(F)(F)F)c2)CC1 [Compound 244, 3-(tert-butylsulfonyl)-N-((1S,4S)-4-fluoro-4-(3-(trifluoromethyl)phenylsulfonyl)cyclohexyl)thiophene-2-carboxamide]
8 | 530 | – | > 10000 | O=S(=O)(N[C@H]1CC[C@@](F)(S(=O)(=O)c2cccc(C(F)(F)F)c2)CC1)c1ccc(C(F)(F)F)cc1 [Compound 301, N-((1S,4S)-4-fluoro-4-(3-(trifluoromethyl)phenylsulfonyl)cyclohexyl)-4-(trifluoromethyl) benzenesulfonamide]
9 | 1300 | – | > 10000 | O=C(Nc1ccc(Oc2ccc(F)cc2)nc1)[C@H]1C[C@H](S(=O)(=O)c2cccc(C(F)(F)F)c2)C1 [Compound 405, (1R,3R)-N-(6-(4-fluorophenoxy)pyridin-3-yl)-3-(3-(trifluoromethyl)phenylsulfonyl)cyclobutane carboxamide]
10 | 1140 | – | > 10000 | O=S(=O)(NC[C@H]1C[C@H](S(=O)(=O)c2cccc(C(F)(F)F)c2)C1)c1ccccc1C(F)(F)F [Compound 426, 2-(trifluoromethyl)-N-(((1R,3R)-3-(3-(trifluoromethyl)phenylsulfonyl)cyclobutyl)methyl)benzenesulfonamide]
11 | 1610 | – | 5420 | CC(C)(C)NC(=O)CNC[C@H]1C[C@H](S(=O)(=O)c2cccc(C(F)(F)F)c2)C1 [Compound 359, N-tert-butyl-2-(((1R,3R)-3-(3-(trifluoromethyl)phenylsulfonyl)cyclobutyl)methylamino)acetamide]

Second part, the compound before the results:

Row | Compound | IC50 [1] [nM] | IC50 [2] [nM] | IC50 [3] [nM]
12 | Cn1cc(C(=O)N[C@H]2CC[C@H](S(=O)(=O)c3cccc(C(F)(F)F)c3)CC2)c(C(F)(F)F)n1 [Compound 64, 1-methyl-3-(trifluoromethyl)-N-((1R,4R)-4-(3-(trifluoromethyl)phenylsulfonyl)cyclohexyl)-1H-pyrazole-4-carboxamide] | 550 | > 10000 | –
13 | CCN(CC)C(=O)CN[C@H]1CC[C@@H](S(=O)(=O)c2cccc(C(F)(F)F)c2)CC1 [Compound 51, N,N-diethyl-2-((1S,4S)-4-(3-(trifluoromethyl)phenylsulfonyl)cyclohexylamino)acetamide] | 1510 | > 10000 | –
14 | CC1(NC(=O)c2cc(F)cc(Cl)c2)CCC(F)(S(=O)(=O)c2cccc(C(F)(F)F)c2)CC1 (stereo not shown) [Compound 93, 3-chloro-5-fluoro-N-(4-fluoro-1-methyl-4-(3-(trifluoromethyl)phenylsulfonyl)cyclohexyl)benzamide] | 240 | > 10000 | –
15 | COc1cc(F)cc(C(=O)N[C@H]2CC[C@@H](S(=O)(=O)c3cccc(C(F)(F)F)c3)CC2)c1 [Compound 39, 3-fluoro-5-methoxy-N-((1S,4S)-4-(3-(trifluoromethyl)phenylsulfonyl)cyclohexyl)benzamide] | 410 | > 10000 | –
16 | O=C(N[C@H]1CC[C@H](CS(=O)(=O)c2cccc(C(F)(F)F)c2)CC1)c1cc(F)cc(C(F)(F)F)c1 [Compound 107, 3-fluoro-5-(trifluoromethyl)-N-((1R,4R)-4-((3-(trifluoromethyl)phenylsulfonyl)methyl)cyclohexyl)benzamide] | 2710 | > 10000 | –
17 | O=C(N[C@H]1CC[C@H](S(=O)(=O)c2cccc(C(F)(F)F)c2)CC1)c1cc(C(F)(F)F)ccn1 [Compound 61, 4-(trifluoromethyl)-N-((1R,4R)-4-(3-(trifluoromethyl)phenylsulfonyl)cyclohexyl)picolinamide] | 1650 | > 10000 | –
18 | O=C(N[C@H]1CC[C@@](F)(S(=O)(=O)c2cccc(C(F)(F)F)c2)CC1)c1ccc(F)c(Cl)c1 [Compound 238, 3-chloro-4-fluoro-N-((1S,4S)-4-fluoro-4-(3-(trifluoromethyl)phenylsulfonyl)cyclohexyl)benzamide] | 90 | – | 2780
19 | CC1(CNC(=O)c2ccc(C(F)(F)F)nc2)CCC(S(=O)(=O)c2cccc(C(F)(F)F)c2)CC1 (stereo not shown) [Compound 213, N-((1-methyl-4-(3-(trifluoromethyl)phenylsulfonyl)cyclohexyl)methyl)-6-(trifluoromethyl)nicotinamide] | 620 | – | 940
20 | O=C(NC[C@]1(O)CC[C@@H](S(=O)(=O)c2cccc(C(F)(F)F)c2)CC1)c1cc(F)cc(Cl)c1 [Compound 228, 3-chloro-5-fluoro-N-(((1S,4S)-1-hydroxy-4-(3-(trifluoromethyl)phenylsulfonyl)cyclohexyl)methyl)benzamide] | 740 | – | 330
21 | CC(C)(C)NC(=O)CNC[C@H]1CC[C@@H](S(=O)(=O)c2cccc(C(F)(F)F)c2)CC1 [Compound 35, N-tert-butyl-2-(((1S,4S)-4-(3-(trifluoromethyl)phenylsulfonyl)cyclohexyl)methylamino)acetamide] | – | > 10000 | –
22 | COc1cc(C(=O)N[C@H]2CC[C@@](F)(S(=O)(=O)c3cccc(C(F)(F)F)c3)CC2)cc(Cl)n1 [Compound 242, 2-chloro-N-((1S,4S)-4-fluoro-4-(3-(trifluoromethyl)phenylsulfonyl)cyclohexyl)-6-methoxyisonicotinamide] | 110 | – | 4300
23 | 4-(trifluoromethyl)-N-((1R,4R)-4- ((3- (trifluoromethyl)phenylsulfonyl) methyl)cyclohexyl)picolinamide [Compound 103] | 460 | – | > 10000
24 | CC1(CNC(=O)c2cc(F)cc(Cl)c2)CCC(F)(S(=O)(=O)c2cccc(C(F)(F)F)c2)CC1 (stereo not shown) [Compound 154, 3-chloro-5-fluoro-N-((4-fluoro-1-methyl-4-(3-(trifluoromethyl)phenylsulfonyl)cyclohexyl)methyl)benzamide] | 450 | – | 3600
